Measured values as given in patent US9603829B2, “HSP90 inhibitors with modified toxicity” (THE REGENTS OF THE UNIVERSITY OF COLORADO, a body corporate, priority 2011, dated 2017).

Columns and labels:
[1] = target: yeast Hsp90 ATPase (Saccharomyces cerevisiae, UniProt P02829); test: Purified recombinant yeast Hsp90 ATPase activity; type: biochemical; conditions: in the absence and presence of NQO1
Experimental: In vitro testing was performed to verify that 19-substitutions prevent GSH conjugation of benzoquinone ansamycins (BQAs). Referring to FIG. 6, reactions were performed in 50 mM potassium phosphate buffer, pH 7.4 containing 50 μM benzoquinone ansamycin in the absence (solid bars) and presence (hatched bars) of 5 mM GSH. At the indicated times (GM series, 15 min; DMAG series, 3 hr; AAG series, 16 hr) the reactions were stopped and BQA concentrations were determined by HPLC. […] The 19-substituted benzoquinone ansamycins were also tested in vitro for inhibition of Hsp90. Referring to FIG. 7, purified recombinant yeast Hsp90 ATPase activity was measured in reactions with 19-substituted BQAs in the absence and presence of NADPH quinone oxidoreductase 1 (NQO1). Results are expressed as percent of DMSO control (mean±SD n=3).
The parent BQA's inhibited purified Hsp90 much more readily in the presence of NQO1 to generate the hydroquinone and this could be blocked by the inhibitor ES936. […] This could be blocked by the NQO1 inhibitor ES936.

[2] = target: purified human NQO1 (Homo sapiens, UniProt P15559); test: Reduction by purified recombinant human NQO1 (HPLC); type: biochemical; conditions: 50 μM, NADH 200 μM, rhNQO1 5 μg, 15 min; blocked by ES936
Chain of purified human NQO1 (P15559 whole entry): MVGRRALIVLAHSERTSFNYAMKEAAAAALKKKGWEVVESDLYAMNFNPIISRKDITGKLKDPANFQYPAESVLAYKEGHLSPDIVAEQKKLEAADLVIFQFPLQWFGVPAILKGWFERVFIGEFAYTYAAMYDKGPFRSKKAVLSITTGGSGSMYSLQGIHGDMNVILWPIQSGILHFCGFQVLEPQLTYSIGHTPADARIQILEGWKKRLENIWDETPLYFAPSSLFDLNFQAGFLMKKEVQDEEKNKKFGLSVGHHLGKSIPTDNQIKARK
Experimental: To confirm bioreduction by NQO1 19Ph-GA was incubated with purified human NQO1 and analyzed by HPLC. […] Reactions with purified rhNQO1 (FIG. 14, panels A and B): 19Ph-GA (50 μM) was incubated with NADH (200 μM) in the absence and presence of purified rhNQO1 (5 μg). After 15 min reactions were stopped and analyzed by HPLC. Panel A; chromatograph overlays of 19Ph-GA, NADH (black) and 19Ph-GA, NADH and NQO1 (red). […] Panel B; chromatograph of 19Ph-GA, NADH, NQO1 and ES936. No 19Ph-GA hydroquinone formation is observed in the presence of the NQO1 inhibitor ES936.

[3] = system: SHSY-5Y cells; test: MTT growth inhibition assay in SHSY-5Y dopaminergic cells; type: cell-based, human; conditions: Homo sapiens, SH-SY5Y, read-out: SHSY-5Y IC50
Experimental: The 19-substituted benzoquinone ansamycins were also tested in vitro for their ability to reduce the toxicity of BQAs to SH-SY5Y cells a dopaminergic model system of relevance to neurodegenerative disease. Referring to FIG. 9, toxicity of BQAs in SH-SY-5Y cells was measured using trypan blue exclusion (panel A), MTT growth inhibition assay (panel B) and annexin V/PI staining for apoptosis (panel C). Cells in A and C were treated with BQAs (5 μM) for 16 h; cells in B were treated with BQAs for 4 h then allowed to grow in drug-free medium for 72 h. […] The combination of these two properties are likely to be important to the neuroprotective properties of the 19-substituted BQAs.
Growth inhibition assays (MTT) were conducted in human SHSY-5Y cells following a 4 hr treatment with GA or 19Me-GA. Cell were allowed to grow for 72 hrs following drug treatment. The 19-methyl substituted compounds in all series were minimally toxic (see FIG. 12 for data with geldanamycin, MTT assay, results are expressed as the mean±SD, n=3).

[4] = system: primary mouse hepatocytes; test: Hepatotoxicity in primary mouse hepatocytes (MTT); type: cell-based; conditions: 4 hr, confirmed by Trypan Blue and AST leakage
Experimental: The inventors next tested the effect of 19-substitution of BQAs on hepatotoxicity in isolated hepatocyte systems. Isolated primary mouse hepatocytes were grown on coated 96-well plates and exposed to BQAs for 4 h after which their survival was determined using the MTT assay.
As described above, a major obstacle in the development of BQA as drugs has been their ability to induce hepatotoxicity in preclinical studies. […] Toxicity was measured using MTT assay and confirmed using Trypan Blue and AST leakage. The data shown in FIG. 19 were generated using MTT analysis but similar readouts were obtained using either trypan blue exclusion or leakage of AST from hepatocytes.

[5] = system: human pancreatic cancer cell lines (Panc-1, Panc-1/C5); test: MTT growth inhibition in human pancreatic cancer cell lines; type: cell-based
Experimental: (§1) The inventors also examined the ability of 19 BQAs to inhibit the growth of human pancreatic cancer cell lines (FIG. 16). For growth inhibition studies (MTT) cells were treated with drugs for 4 hr and then allowed to grow for 72 h. For biomarker studies MiaPaCa2 cells were treated with DMAG analogs (5 μM) for 24 hr. 19 BQAs inhibit the growth of human pancreatic cancer cell lines (FIG. 16A, 16B) and induce biomarkers of Hsp90 inhibition (FIG. 16C) using isogenic Panc-1 (NQO1 null) and Panc-1/C5 (NQO1 expressing) cell lines.

[6] = system: MDA468/NQ16 breast cancer cells; test: MTT growth inhibition in isogenic MDA468/NQ16 and MDA468 cells; type: cell-based, human; conditions: MDA468/NQ16, 4 hours treatment, 72 h growth, MTT
Experimental: The 19-substituted benzoquinone ansamycins were also tested in vitro for their ability to inhibit growth similar to DMAG in human breast cancer cells (FIG. 10). MDA468/NQ16 breast cancer cells were treated with 19-substituted DMAG analogs for 4 hours, after which drug-containing media was removed and cells were allowed to grow for an additional 72 h. Cell viability was determined using the MTT assay.
(§2) The ability of 19-substituted BQAs to induce growth inhibition was measured by MTT in isogenic MDA468 (null NQO1) and MDA468/NQ16 (high NQO1) cells. […] Biomarkers of Hsp90 inhibition (Raf-1, AKT degradation and Hsp70 induction) were more pronounced in MDA468/NQ16 cells compared to MDA468 cells following treatment with 19-substituted DMAG analogs.

[7] = system: cdc37/Hsp90 interaction; test: Immunoprecipitation of cdc37 with Hsp90 in BT474 and MDA468/NQ16 cells; type: cell-based, human; conditions: 5 μM, 24 hr
Experimental: Similarly, the association of cdc37 with hsp90 was examined in BT474 cells and MDA468/NQ16 cells by immunoprecipitation following treated with analogs (5 μM) for 24 hr. […] This finding is consistent with X ray data using purified Hsp90 showing that the larger 19-phenyl substituent causes greater conformational change in the Hsp90 structure than smaller 19-substituents (not shown). This also correlates with the differential effect of 19-phenyl and 19-methyl DMAG on clients chaperoned by cdc37 to Hsp90 which include Raf1, Akt, cdc2 and cdk4 (FIGS. 8,9,10).

[8] = system: Hsp90 (Raf-1, AKT degradation and Hsp70 induction); test: Biomarkers of Hsp90 inhibition in MDA468/NQ16 cells; type: cell-based, human; conditions: MDA468/NQ16 (high NQO1) cells
Experimental: as §2

[9] = system: MiaPaCa2 human pancreatic cancer cells; test: MTT growth inhibition in MiaPaCa2 cells; type: cell-based
Experimental: as §1

[10] = system: Hsp90; test: Biomarkers of Hsp90 inhibition in MiaPaCa2 cells; type: cell-based, human; conditions: 5 μM, 24 hr (FIG. 16C)
Experimental: as §1

[11] = system: BT474 human breast cancer cells; test: MTT growth inhibition in BT474 cells; type: cell-based; conditions: BT474, 4 hr treatment, MTT 72 h later
Experimental: (§3) The inventors extended the studies with 19-substituted DMAG analogs to include the Her2^+ human breast cancer cell line BT474 (FIG. 15). Growth inhibition (FIG. 15, left panel) was measured in BT474 cells following treatment with analogs for 4 hr. Growth inhibition (MTT) was performed 72 h following drug treatments. Biomarkers of Hsp90 inhibition, Raf-1, AKT, CDK4 and Her2 degradation as well as Hsp70 induction were measured by immunoblot analysis in human BT474 breast cancer cells following treatment with 19-substituted DMAG analogs (5 μM) for 24 hr ([…], left panel).

[12] = system: p23/Hsp90 interaction; test: Immunoprecipitation of p23 and Hsp90 in BT474 cells; type: cell-based, human; conditions: 5 μM, 24 hr
Experimental: Forward and reverse immunoprecipitation studies were performed in BT474 cells treated with DMAG analogs (5 μM) for 24 hr.

[13] = system: Hsp90 (Raf-1, AKT, CDK4, Her2 degradation, Hsp70 induction); test: Immunoblot biomarkers of Hsp90 inhibition in BT474 cells; type: cell-based, human; conditions: cell line not given
Experimental: as §3

Chain of yeast Hsp90 ATPase (P02829 whole entry): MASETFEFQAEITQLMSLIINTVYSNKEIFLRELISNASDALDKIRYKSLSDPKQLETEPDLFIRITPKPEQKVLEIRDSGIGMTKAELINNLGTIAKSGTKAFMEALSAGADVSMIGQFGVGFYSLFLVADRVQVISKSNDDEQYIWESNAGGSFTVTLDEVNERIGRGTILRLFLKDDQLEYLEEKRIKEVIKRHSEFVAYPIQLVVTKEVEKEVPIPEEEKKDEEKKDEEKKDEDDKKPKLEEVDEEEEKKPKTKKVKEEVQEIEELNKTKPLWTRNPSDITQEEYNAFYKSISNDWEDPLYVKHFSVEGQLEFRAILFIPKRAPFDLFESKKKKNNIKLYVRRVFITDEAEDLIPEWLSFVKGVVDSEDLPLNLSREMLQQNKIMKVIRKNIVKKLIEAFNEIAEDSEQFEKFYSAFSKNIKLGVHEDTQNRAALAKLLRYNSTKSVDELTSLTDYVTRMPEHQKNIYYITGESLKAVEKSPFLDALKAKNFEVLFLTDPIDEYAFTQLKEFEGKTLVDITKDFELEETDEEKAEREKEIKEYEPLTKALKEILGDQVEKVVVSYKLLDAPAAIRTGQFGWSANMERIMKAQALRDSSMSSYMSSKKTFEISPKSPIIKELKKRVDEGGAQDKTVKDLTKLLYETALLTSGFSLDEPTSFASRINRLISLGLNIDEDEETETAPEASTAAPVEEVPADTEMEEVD

Row | Structure (SMILES) | inhibition of Hsp90 ATPase activity [1] | reduction to hydroquinone by NQO1 [2] | IC50 [3] [µM] | hepatotoxicity [4] | sensitivity of Panc-1/C5 (high NQO1) relative to NQO1-null Panc-1 cells ([5]; FIG. 16B) | growth inhibitory activity ([5]; human pancreatic cancer cell lines, 4 hr treatment, 72 h growth, MTT (FIG. 16A)) | potency at killing breast cancer cells relative to DMAG [6] | interaction of cdc37 with Hsp90 [7] | Hsp70 induction [8] | Raf-1 and AKT degradation [8] | IC50 ([9]; Homo sapiens, MIA PaCa-2, read-out: IC50 MiaPaCa2) [µM] | potency relative to 19Me-DMAG, growth inhibition ([9]; MiaPaCa2 cells) | induction of biomarkers of Hsp90 inhibition [10] | growth inhibition [11] | interaction of p23 and Hsp90 [12] | effects on clients chaperoned by cdc37 to Hsp90 (Raf1, Akt, cdc2, cdk4) [13]
1 | C=CCNc1c(O)cc2c(O)c1C[C@@H](C)C[C@H](OC)[C@H](O)[C@@H](C)/C=C(\C)[C@H](OC(N)=O)[C@@H](OC)/C=C\C=C(/C)C(=O)N2 [17AAG hydroquinone] | inhibition of yeast Hsp90 ATPase activity | – | – | – | – | – | – | – | – | – | – | – | – | – | – | –
2 | COC1=C2C[C@@H](C)C[C@H](OC)[C@H](O)[C@@H](C)/C=C(\C)[C@H](OC(N)=O)[C@@H](OC)/C=C\C=C(/C)C(=O)NC(=C(c3ccccc3)C1=O)C2=O [19Ph-GA, 19-phenylgeldanamycin] | – | reduced to the more polar 19Ph-GA hydroquinone | > 10 | – | – | – | – | – | – | – | – | – | – | – | – | –
3 | CO[C@H]1/C=C\C=C(/C)C(=O)NC2=C(c3ccccc3)C(=O)C(NCCN(C)C)=C(C[C@@H](C)C[C@H](OC)[C@H](O)[C@@H](C)/C=C(\C)[C@@H]1OC(N)=O)C2=O [19Ph-DMAG, (4E,6Z,8S,9S,10E,12S,13R,14S,16R)-19-(2-(Dimethylamino)ethylamino)-13-hydroxy-8,14-dimethoxy-4,10,12,16-tetramethyl-3,20,22-trioxo-21-phenyl-2-azabicyclo[16.3.1]docosa-1 (21),4,6,10,18-pentaen-9-yl carbamate] | – | – | > 20 | no toxicity was observed | more sensitive | marked growth inhibitory activity | greater potency at killing breast cancer cells than DMAG | disrupted the interaction of cdc37 with Hsp90 | equal Hsp70 induction compared to DMAG | more pronounced Raf-1 and AKT degradation | 3 ± 0.6 | greater than 10 fold | pronounced induction of biomarkers of Hsp90 inhibition | induced growth inhibition | disrupted the interaction of p23 and Hsp90 | marked
